One series concerns the target T1, DENV2 NS2B/3 protease (Dengue virus type 2, UniProt P14340).
T1 construct: DENV2 NS2BH-(QR)-NS3pro enzyme3
Put plainly: In vitro protease assay. In kind it is biochemical. The settings on record: in words.

Series [1] can be described thus: Viability of DENV2/BHK-21 replicon cells. The format is cell-based. The settings on record: hamster, 5 and 10 µM, read-out: viable replicon cells. The procedure:
Next, we studied FV13 inhibition in a DENV2 replicon replication system to investigate whether translation and replication could be implicated as drug targets. BHK-21/DENV2 replicon cells[28] were treated with 5 and 10 µM FV13 and incubated for 72 h before measuring replication efficiency by quantifying replicon RNA. Ribavirin, a known dengue virus replication inhibitor[29], was used as a positive control.
Figure 6 Replicon inhibition study. (A) DENV2/BHK-21 replicon cells were treated with FV13 or ribavirin for 72 h. Percent inhibition was calculated from RT-qPCR of extracted RNA. Error bars represented standard error of means (SEM) from two independent experiments with triplicate samples. Asterisks indicated statistical significance in paired t-test as follows; *p-value < 0.05, **p-value < 0.01, ***p-value < 0.001 compared to 1% DMSO negative control. (B) Percent DENV2/BHK-21 replicon cell viability at 72 h under 5 and 10 µM FV13 treatment. Error bars represented standard error of means (SEM) from three independent experiments, in which each experiment was performed in triplicate.

The next series concerns DENV2. Put plainly: Attachment inhibition study, DENV2 with LLC/MK2 cells. The settings on record: 10 µM. The format is cell-based, Dengue virus. The procedure:
We further explored whether the compound would block the viral infectivity by neutralization. We set up the attachment inhibition assay by incubating DENV2 with LLC/MK2 cells at 4 °C for 1 h and FV13 was added before adsorption (pre-attachment), simultaneous with adsorption (co-attachment), and after adsorption (post-attachment) (Fig. 5A). DMSO was used as a mock treatment and added in parallel to FV13 to the experiment. Cells were incubated until cytopathic effects appeared under microscope (Fig. 5B). Supernatants and cells were then analyzed by plaque titration (Fig. 5C) and RT-qPCR (Fig. 5D), respectively. […] Therefore, the major targets of FV13 inhibition appear to function after attachment, possibly at the fusion or translation steps. […] (Supplementary 1). Therefore, fusion was unlikely the major target of FV13. We concluded that one of the major targets of FV13 functions early after infection and attachment and fusion are not critically affected. Flavivirus translation initiates within 1 to 5 hpi[26].
After supernatant collection, the remaining cells in experimental plates were extracted for viral RNAs using TRIzol reagent (Invitrogen, California, USA) according to the manufacturer’s protocol. The samples were loaded into the Direct-zol™ RNA MiniPrep (Zymo research, California, USA) and quantified by Nanodrop spectrophotometry (Eppendorf, New York, USA). The RT-qPCR was performed with a Step-OnePlus Real-Time PCR System (Applied Biosystems, California, USA.) with 1 × Power SYBRGreen PCR Master Mix, 400 nM each of capsid primers[40] or 250 nM of NS1 primers[41] and 0.1 µg of total RNA. The reactions were then cycled at 48 °C 30 min and 95 °C 10 min, followed by 45 cycles of 95 °C for 20 s (denaturation), 55 °C for 30 s (annealing), 72 °C for 30 s (extension). Each sample was analyzed in triplicated and results were confirmed by two independent experiments.
The attachment assay was adapted from Lani et al., 2016 and Jin et al., 2015 [42],[43]. Briefly, LLC/MK2 cells were seeded in 24-well plates and incubated as previously described. […]

Series [2] is described as follows: Cytotoxicity study, summary statements over human-derived cell lines. The format is cell-based. Particulars: HepG2 and HEK-293 cells, THP-1, HepG2, HEK-293, 10 and 25 µM, Table 2. The procedure:
The cytotoxicity of active compounds was tested on LLC-MK2, Vero, THP-1, HEK-293, HepG2 and C6/36 cell lines. Each cell line was seeded at 1 × 10^4 cells per well in 96-well plates and incubated overnight. The compounds were added at the indicated concentrations and the cells were incubated for 48 h, unless indicated otherwise. Cell viability was analyzed using CellTiter 96® AQueous One Solution Cell Proliferation Assay kit (Promega, Wisconsin-Madison, USA) according to manufacturer’s protocol. The plate was read at the A 450 in a VICTORTM × 3 microplate reader (PerkinElmer, Massachusetts, USA). Percent cell viability in compound-treated wells was calculated using reference DMSO-treated cells as a 100% cell viability control. The CC50 values of LLC/MK2 cells were calculated using nonlinear regression analysis. Results were reported as means and standard error of the means (SEM) of CC50 values of three independent experiments in which each drug concentration was tested in triplicate.

T1 sequence (P14340 1398-1437): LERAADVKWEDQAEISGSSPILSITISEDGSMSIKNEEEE
T1 sequence (P14340 1476-1653): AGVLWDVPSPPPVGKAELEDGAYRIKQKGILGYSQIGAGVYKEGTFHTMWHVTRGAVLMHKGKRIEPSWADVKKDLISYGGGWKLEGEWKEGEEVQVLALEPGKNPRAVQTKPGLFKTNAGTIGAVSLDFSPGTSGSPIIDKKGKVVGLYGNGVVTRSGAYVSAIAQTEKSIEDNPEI
Method for DENV2 NS2B/3 protease: Assays were performed in triplicate in a 96-well half area black plate
(Greiner Bio-One, Monroe, NC, USA). The reaction mixture (100 μl) contained
200 mM Tris-HCl, pH 9.5, 30% glycerol, 0.1% CHAPS, 1% DMSO, 50 nM
DENV2 NS2BH-(QR)-NS3pro enzyme3, 10 µM fluorogenic tetrapeptide
substrate, Bz-Nle-Lys-Arg-Arg-AMC, and designated concentrations of
compounds in DMSO (concentration of 1%). The compound-enzyme mixture
was pre-incubated for 15 min at room temperature before addition of the
substrate. The reaction was continued at 37 οC for 30 min. The release of AMC
from the substrate was recorded every 1.5 min at 380 nm excitation and 460 nm
emission in a SpectraMax Gemini EM spectrofluorometer (Molecular Devices,
Sunnyvale, CA). DMSO alone (concentration of 1%) was used as the no-inhibitor
control (100% protease activity) and the bovine pancreatic trypsin inhibitor
protease, was used at 5 µM in DMSO concentration of 1% as a positive control
(0% protease activity). Data were plotted and reported as percent inhibition of
each compound to protease activity.
The in vitro enzymatic protease assay. Compounds were prepared three
concentrations and mixed with protein, added substrate (Bz)-Nle-Arg-arg-AMC
and measured at 460 nm with an excitation at 380 nm.

Regarding `O=c1cc(-c2ccccc2)oc2c(Br)c(O)c(Br)c(O)c12` [FV13, 6,8-dibromo-5,7-dihydroxyflavone], the “targeting of DENV2 protease in the in vitro protease assay” value at DENV2 NS2B/3 protease is “did not target DENV2 protease”. Moreover, the viability at 72 h in series [1] is above 99%. For the same compound, the “viral RNA reduction” value with DENV2 (post-attachment, intracellular RNA, RT-qPCR) is given as 64.07 ± 3.37%. Besides, the plaque titer reduction with DENV2 (post-attachment, supernatants, 2 days) turned out to be 40.59 ± 2.83%. In the series with DENV2 (pre-attachment and co-attachment, in words), the “interference with pre- or co-attachment steps” value was “did not interfere with either pre- or co-attachment steps”. In series [2], the viability at 48 h was above 80%.

Source of the values: paper PMC5651866, “Halogenated Chrysins Inhibit Dengue and Zika Virus Infectivity” (Scientific Reports, 2017).
